# Test results taken from patent publication US20230151003A1, “COMPOUNDS AND METHODS OF USE” (Exelixis, Inc., priority 2020, published 2023).
# How the values were obtained:
# Mer = molecular target: T1, Mer (Homo sapiens, UniProt Q12866); assay: Mer autophosphorylation ELISA in transient transfected 293A cells; type: cell-based; conditions: Table 3 Cellular Activities; MERTK-transfected 293A cells, phospho-Mer ELISA
# T1 construct: host or cells: 293A cells (Thermo Fisher #R70507)
# T1 sequence (Q12866 21-999): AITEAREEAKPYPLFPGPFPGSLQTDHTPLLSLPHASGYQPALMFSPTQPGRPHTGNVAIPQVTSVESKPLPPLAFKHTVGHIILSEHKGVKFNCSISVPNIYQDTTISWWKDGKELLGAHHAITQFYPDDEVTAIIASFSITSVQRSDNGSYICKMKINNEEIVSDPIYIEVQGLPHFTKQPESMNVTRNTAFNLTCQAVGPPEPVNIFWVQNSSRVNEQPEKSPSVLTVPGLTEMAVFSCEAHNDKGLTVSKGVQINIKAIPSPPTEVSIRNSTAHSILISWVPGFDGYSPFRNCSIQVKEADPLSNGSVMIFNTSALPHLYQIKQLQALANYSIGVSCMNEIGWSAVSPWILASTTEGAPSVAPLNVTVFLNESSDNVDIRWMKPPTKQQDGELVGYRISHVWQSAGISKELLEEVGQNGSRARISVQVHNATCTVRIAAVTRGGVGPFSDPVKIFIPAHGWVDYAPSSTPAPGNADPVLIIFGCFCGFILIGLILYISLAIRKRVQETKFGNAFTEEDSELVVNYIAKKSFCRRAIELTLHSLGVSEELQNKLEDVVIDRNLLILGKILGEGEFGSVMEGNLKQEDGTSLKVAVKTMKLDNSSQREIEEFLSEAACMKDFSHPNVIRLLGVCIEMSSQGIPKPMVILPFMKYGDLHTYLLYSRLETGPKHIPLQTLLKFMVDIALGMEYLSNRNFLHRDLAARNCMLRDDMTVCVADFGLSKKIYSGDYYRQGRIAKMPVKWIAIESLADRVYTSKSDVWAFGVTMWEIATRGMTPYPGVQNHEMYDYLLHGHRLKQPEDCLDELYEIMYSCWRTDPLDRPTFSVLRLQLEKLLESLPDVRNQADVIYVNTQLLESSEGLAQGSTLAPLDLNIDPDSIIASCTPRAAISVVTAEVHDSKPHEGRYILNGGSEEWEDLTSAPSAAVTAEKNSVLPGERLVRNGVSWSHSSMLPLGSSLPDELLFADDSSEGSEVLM
# How it was run: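 293A cells transiently transfected with human MERTK DNA, replated after 24 h, then treated 1 h with 8-point compound dilutions in serum-free medium (0.3% DMSO). Lysates assayed by phospho-Mer sandwich ELISA against phospho-Mer standard; DMSO = 100%, reference inhibitor = 0% activity; IC50 by 4-parameter logistic fit.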
# Met = Met (Homo sapiens, UniProt P08581); assay: Met autophosphorylation ELISA in PC-3 cells; type: cell-based; set-up: endogenous in cells; host or cells: PC-3 prostate cancer cells (ATCC #CRL-1435); conditions: Table 3 Cellular Activities, HGF-stimulated, phospho-Met ELISA, read-out: c-Met IC50
# Sequence of Met (P08581 25-1390): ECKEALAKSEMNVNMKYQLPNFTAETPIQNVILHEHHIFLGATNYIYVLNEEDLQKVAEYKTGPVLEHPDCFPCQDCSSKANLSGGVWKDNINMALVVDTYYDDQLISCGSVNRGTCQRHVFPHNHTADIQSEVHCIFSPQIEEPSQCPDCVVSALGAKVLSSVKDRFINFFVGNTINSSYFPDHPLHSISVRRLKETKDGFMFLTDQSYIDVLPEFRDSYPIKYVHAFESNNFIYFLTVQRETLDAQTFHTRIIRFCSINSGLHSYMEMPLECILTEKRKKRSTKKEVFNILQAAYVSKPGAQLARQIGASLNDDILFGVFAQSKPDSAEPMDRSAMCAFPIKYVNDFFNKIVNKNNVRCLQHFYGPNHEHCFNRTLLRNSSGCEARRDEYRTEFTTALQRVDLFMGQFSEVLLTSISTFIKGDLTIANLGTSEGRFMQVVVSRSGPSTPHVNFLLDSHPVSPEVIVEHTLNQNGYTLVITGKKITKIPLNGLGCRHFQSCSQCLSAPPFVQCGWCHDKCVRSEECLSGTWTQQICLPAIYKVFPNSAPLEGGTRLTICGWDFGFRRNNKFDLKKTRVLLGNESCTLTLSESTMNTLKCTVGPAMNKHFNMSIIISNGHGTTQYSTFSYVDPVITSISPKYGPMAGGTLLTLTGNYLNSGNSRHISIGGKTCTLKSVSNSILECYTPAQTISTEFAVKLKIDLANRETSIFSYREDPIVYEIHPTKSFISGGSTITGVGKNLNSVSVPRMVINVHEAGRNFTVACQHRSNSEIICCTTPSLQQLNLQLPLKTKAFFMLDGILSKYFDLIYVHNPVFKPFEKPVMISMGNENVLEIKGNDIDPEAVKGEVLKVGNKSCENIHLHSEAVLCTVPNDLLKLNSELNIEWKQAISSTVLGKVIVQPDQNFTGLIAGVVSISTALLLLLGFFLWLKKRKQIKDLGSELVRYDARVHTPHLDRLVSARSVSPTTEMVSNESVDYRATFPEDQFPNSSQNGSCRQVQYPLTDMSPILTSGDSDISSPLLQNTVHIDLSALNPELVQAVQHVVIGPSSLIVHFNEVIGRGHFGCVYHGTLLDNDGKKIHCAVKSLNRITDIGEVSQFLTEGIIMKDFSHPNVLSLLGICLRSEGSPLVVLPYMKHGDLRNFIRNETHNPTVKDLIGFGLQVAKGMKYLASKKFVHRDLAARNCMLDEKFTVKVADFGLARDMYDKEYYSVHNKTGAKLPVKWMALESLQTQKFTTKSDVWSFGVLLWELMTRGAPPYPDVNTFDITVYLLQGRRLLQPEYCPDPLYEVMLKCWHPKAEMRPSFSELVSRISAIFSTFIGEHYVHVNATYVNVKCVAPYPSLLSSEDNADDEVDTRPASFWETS
# How it was run: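 Serum-starved (3 h) PC-3 cells pre-incubated 1 h with compound (8-point dose curve, 0.3% DMSO), then stimulated with 100 ng/mL recombinant human HGF for 10 min. Lysate phospho-Met (panTyr) measured by sandwich ELISA; IC50 from 4-parameter logistic fit, normalised to DMSO (100%) and reference-inhibitor (0%) controls.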
SMILES,IC50 (Mer),IC50 (Met)
"COc1cc2nccc(Oc3ccc(NC(=O)c4c(C)ncc(-c5ccccn5)c4O)cc3F)c2nc1OC [Compound 69, N-[4-[(6,7-Dimethoxy-1,5-naphthyridin-4-yl)oxy]-3-fluorophenyl]-4-hydroxy-2-methyl-5-pyridin-2-ylpyridine-3-carboxamide]",≤ 100 nM,≤ 100 nM
"COCCOc1cc2nccc(Oc3ccc(NC(=O)c4c(C)n(C)c(C)c(-c5coc6ccccc56)c4=O)cc3F)c2nc1OC [Compound 264, 5-(1-Benzofuran-3-yl)-N-[3-fluoro-4-[[6-methoxy-7-(2-methoxyethoxy)-1,5-naphthyridin-4-yl]oxy]phenyl]-1,2,6-trimethyl-4-oxopyridine-3-carboxamide]",≤ 100 nM,≤ 100 nM
"COc1cc2nccc(Oc3ccc(NC(=O)c4ccc(C)n(-c5ccnc(O)c5)c4=O)cc3F)c2nc1OC [Compound 232, N-[4-[(6,7-Dimethoxy-1,5-naphthyridin-4-yl)oxy]-3-fluorophenyl]-1-(2-hydroxypyridin-4-yl)-6-methyl-2-oxopyridine-3-carboxamide]",≤ 100 nM,≤ 100 nM
"COc1cc2nccc(Oc3ccc(NC(=O)c4c5n(cc(-c6ccc(C)s6)c4=O)CCOC5)cc3)c2nc1OC [Compound 305, N-[4-[(6,7-Dimethoxy-1,5-naphthyridin-4-yl)oxy]phenyl]-7-(5-methylthiophen-2-yl)-8-oxo-3,4-dihydro-1H-pyrido[2,1-c][1,4]oxazine-9-carboxamide]",≤ 100 nM,≤ 100 nM
"COc1cc2nccc(Oc3ccc(NC(=O)c4c(C)nc(C)c(-c5ccc(F)cn5)c4O)cc3)c2nc1OC [Compound 216, N-[4-[(6,7-Dimethoxy-1,5-naphthyridin-4-yl)oxy]phenyl]-5-(5-fluoropyridin-2-yl)-4-hydroxy-2,6-dimethylpyridine-3-carboxamide]",≤ 100 nM,≤ 100 nM
"COc1cc2nccc(Oc3ccc(NC(=O)c4c5n(cc(-c6ccoc6)c4=O)CCOC5)cc3F)c2nc1OC [Compound 306, N-[4-[(6,7-Dimethoxy-1,5-naphthyridin-4-yl)oxy]-3-fluorophenyl]-7-(furan-3-yl)-8-oxo-3,4-dihydro-1H-pyrido[2,1-c][1,4]oxazine-9-carboxamide]",≤ 100 nM,≤ 100 nM
"COCCOc1cc2nccc(Oc3ccc(NC(=O)c4cnc(C)c(-c5ccco5)c4O)cc3F)c2nc1OC [Compound 260, N-[3-Fluoro-4-[[6-methoxy-7-(2-methoxyethoxy)-1,5-naphthyridin-4-yl]oxy]phenyl]-5-(furan-2-yl)-4-hydroxy-6-methylpyridine-3-carboxamide]",≤ 100 nM,≤ 100 nM
"COc1cc2nccc(Oc3ccc(NC(=O)c4ncc(C)n(-c5ccc(F)cn5)c4=O)cc3F)c2nc1OC [Compound 219, N-[4-[(6,7-Dimethoxy-1,5-naphthyridin-4-yl)oxy]-3-fluorophenyl]-4-(5-fluoropyridin-2-yl)-5-methyl-3-oxopyrazine-2-carboxamide]",≤ 100 nM,≤ 100 nM
"COc1cnc2c(Oc3ccc(NC(=O)c4ccc(C)n(-c5ccc(F)cn5)c4=O)cc3F)ccnc2c1 [Compound 45, N-[3-Fluoro-4-[(7-methoxy-1,5-naphthyridin-4-yl)oxy]phenyl]-1-(5-fluoropyridin-2-yl)-6-methyl-2-oxopyridine-3-carboxamide]",≤ 100 nM,≤ 100 nM
"COCc1nc(C)c(-c2ccc(F)cn2)c(O)c1C(=O)Nc1ccc(Oc2ccnc3cc(OC)c(OC)nc23)c(F)c1 [Compound 214, N-[4-[(6,7-Dimethoxy-1,5-naphthyridin-4-yl)oxy]-3-fluorophenyl]-5-(5-fluoropyridin-2-yl)-4-hydroxy-2-(methoxymethyl)-6-methylpyridine-3-carboxamid]",≤ 100 nM,≤ 100 nM
"COc1cc2nccc(Oc3ccc(NC(=O)c4ccc(C)n(-c5ccnc(C)c5)c4=O)cc3F)c2nc1OC [Compound 230, N-[4-[(6,7-Dimethoxy-1,5-naphthyridin-4-yl)oxy]-3-fluorophenyl]-6-methyl-1-(2-methylpyridin-4-yl)-2-oxopyridine-3-carboxamide]",≤ 100 nM,≤ 100 nM
"COc1cc2nccc(Oc3ccc(NC(=O)c4c(C)ncc(-c5ccc(F)cn5)c4O)cc3F)c2nc1OC [Compound 68, N-[4-[(6,7-Dimethoxy-1,5-naphthyridin-4-yl)oxy]-3-fluorophenyl]-5-(5-fluoropyridin-2-yl)-4-hydroxy-2-methylpyridine-3-carboxamide]",≤ 100 nM,≤ 100 nM
"COc1cc2nccc(Oc3ccc(NC(=O)c4c(C)ncc(-c5ncc(F)cc5C)c4O)cc3F)c2nc1OC [Compound 200, N-[4-[(6,7-Dimethoxy-1,5-naphthyridin-4-yl)oxy]-3-fluorophenyl]-5-(5-fluoro-3-methylpyridin-2-yl)-4-hydroxy-2-methylpyridine-3-carboxamide]",≤ 100 nM,≤ 100 nM
"COc1cc2nccc(Oc3ccc(NC(=O)c4c5n(cc(-c6ccco6)c4=O)CCOC5)cc3F)c2nc1OC [Compound 297, N-[4-[(6,7-Dimethoxy-1,5-naphthyridin-4-yl)oxy]-3-fluorophenyl]-7-(furan-2-yl)-8-oxo-3,4-dihydro-1H-pyrido[2,1-c][1,4]oxazine-9-carboxamide]",≤ 100 nM,≤ 100 nM
"COc1cnc2c(Oc3ccc(NC(=O)c4ccc(C)n(-c5ncc(F)cc5C)c4=O)cc3F)ccnc2c1 [Compound 52, N-[3-Fluoro-4-[(7-methoxy-1,5-naphthyridin-4-yl)oxy]phenyl]-1-(5-fluoro-3-methylpyridin-2-yl)-6-methyl-2-oxopyridine-3-carboxamide]",≤ 100 nM,≤ 100 nM
"COc1cc2nccc(Oc3ccc(NC(=O)c4ccc(C)n(-c5ccc(F)cn5)c4=O)cc3)c2nc1OC [Compound 44, N-[4-[(6,7-Dimethoxy-1,5-naphthyridin-4-yl)oxy]phenyl]-1-(5-fluoropyridin-2-yl)-6-methyl-2-oxopyridine-3-carboxamide]",≤ 100 nM,≤ 100 nM
"COc1cc2nccc(Oc3ccc(NC(=O)c4cnc(C)c(-c5ccco5)c4O)cc3)c2cc1OC [Compound 258, N-[4-(6,7-Dimethoxyquinolin-4-yl)oxyphenyl]-5-(furan-2-yl)-4-hydroxy-6-methylpyridine-3-carboxamide]",≤ 100 nM,≤ 100 nM
"COc1cc2nccc(Oc3ccc(NC(=O)c4cccn(-c5ccncc5)c4=O)cc3F)c2nc1OC [Compound 229, N-[4-[(6,7-Dimethoxy-1,5-naphthyridin-4-yl)oxy]-3-fluorophenyl]-2-oxo-1-pyridin-4-ylpyridine-3-carboxamide]",≤ 100 nM,≤ 100 nM
"COc1ccc2nccc(Oc3ccc(NC(=O)c4ccc(C)n(-c5ccc(F)cn5)c4=O)cc3F)c2c1 [Compound 49, N-[3-Fluoro-4-(6-methoxyquinolin-4-yl)oxyphenyl]-1-(5-fluoropyridin-2-yl)-6-methyl-2-oxopyridine-3-carboxamide]",≤ 100 nM,≤ 100 nM
"COc1cnc2c(Oc3ccc(NC(=O)c4cnc(C)c(-c5cccs5)c4O)cc3)ccnc2c1 [Compound 257, 4-Hydroxy-N-[4-[(7-methoxy-1,5-naphthyridin-4-yl)oxy]phenyl]-6-methyl-5-thiophen-2-ylpyridine-3-carboxamide]",≤ 100 nM,≤ 100 nM
"CCc1c(C(=O)Nc2ccc(Oc3ccnc4cc(OC)c(OC)nc34)c(F)c2)c(=O)c(-c2ccco2)c(C)n1C [Compound 324, N-[4-[(6,7-Dimethoxy-1,5-naphthyridin-4-yl)oxy]-3-fluorophenyl]-2-ethyl-5-(furan-2-yl)-1,6-dimethyl-4-oxopyridine-3-carboxamide]",≤ 100 nM,≤ 100 nM
"COc1cc2nccc(Oc3ccc(NC(=O)c4cc(C(C)=O)c(C)n(-c5ccco5)c4=O)cc3F)c2nc1OC [Compound 236, 5-Acetyl-N-[4-[(6,7-dimethoxy-1,5-naphthyridin-4-yl)oxy]-3-fluorophenyl]-1-(furan-2-yl)-6-methyl-2-oxopyridine-3-carboxamide]",≤ 100 nM,300 to 1000 nM
